{"source": "ChEMBL document CHEMBL1122460", "about": "“Preparation of some 10-[3-(dimethylamino)-1-propyl]-10H-pyrazino[2,3-b][1,4] benzothiazines as potential neuroleptics” (J Med Chem, 1983)", "format_in_all_cases": "protein assay", "key": {"Dopamine receptor [1]": {"target": "Dopamine receptor", "assay": "Tested for displacement of rat caudate dopamine receptors by using [3H]spiperone as radioligand"}, "Dopamine receptor [2]": {"target": "Dopamine receptor", "assay": "Tested for displacement of rat caudate dopamine receptors by using [3H]apomorphine as radioligand"}, "Dopamine receptor [3]": {"target": "Dopamine receptor", "assay": "Tested for displacement of rat striatal dopamine receptors by using [3H]apomorphine as radioligand"}}}
{"molecule": "CN(C)CCCN1c2ccccc2Sc2nc(Cl)cnc21", "values": [{"measurement": "IC50", "setting": "Dopamine receptor [1]", "value": 553, "unit": "nM"}, {"measurement": "IC50", "setting": "Dopamine receptor [2]", "value": 1222, "unit": "nM"}]}
{"molecule": "Cc1cnc2c(n1)N(CCCN(C)C)c1ccccc1S2", "values": [{"measurement": "IC50", "setting": "Dopamine receptor [1]", "value": 382, "unit": "nM"}, {"measurement": "IC50", "setting": "Dopamine receptor [3]", "value": 103, "unit": "nM"}]}
{"molecule": "CN(C)CCCN1c2cc(Cl)ccc2Sc2nccnc21", "values": [{"measurement": "IC50", "setting": "Dopamine receptor [1]", "value": 9166, "unit": "nM"}, {"measurement": "IC50", "setting": "Dopamine receptor [3]", "value": 5968, "unit": "nM"}]}
{"molecule": "CN(C)CCCN1c2ccccc2Sc2ncc(Cl)nc21", "values": [{"measurement": "IC50", "setting": "Dopamine receptor [1]", "value": 62.1, "unit": "nM"}, {"measurement": "IC50", "setting": "Dopamine receptor [2]", "value": 67.3, "unit": "nM"}]}
